# From PMC2673211, “Nitric oxide activates ATP-sensitive potassium channels in mammalian sensory neurons: action by direct S-nitrosylation” (Molecular Pain, 2009)
# How the values were obtained:
# [1] = target: T1, KATP channels in large DRG neurons (Rattus norvegicus, UniProt P70673+Q09429); assay: Excised inside-out (cell-free) patch-clamp recording of KATP channel activity; format: biochemical; conditions: SS neurons; for direct effect on KATP channel in inside-out patches: n = 6
# T1 construct: native KATP channels in large DRG neurons; endogenous in cells; host or cells: acutely dissociated large-diameter neurons from rat L4/L5 dorsal root ganglia (sham-operated or spinal nerve ligated animals)
# T1 sequence (Q09429 whole entry): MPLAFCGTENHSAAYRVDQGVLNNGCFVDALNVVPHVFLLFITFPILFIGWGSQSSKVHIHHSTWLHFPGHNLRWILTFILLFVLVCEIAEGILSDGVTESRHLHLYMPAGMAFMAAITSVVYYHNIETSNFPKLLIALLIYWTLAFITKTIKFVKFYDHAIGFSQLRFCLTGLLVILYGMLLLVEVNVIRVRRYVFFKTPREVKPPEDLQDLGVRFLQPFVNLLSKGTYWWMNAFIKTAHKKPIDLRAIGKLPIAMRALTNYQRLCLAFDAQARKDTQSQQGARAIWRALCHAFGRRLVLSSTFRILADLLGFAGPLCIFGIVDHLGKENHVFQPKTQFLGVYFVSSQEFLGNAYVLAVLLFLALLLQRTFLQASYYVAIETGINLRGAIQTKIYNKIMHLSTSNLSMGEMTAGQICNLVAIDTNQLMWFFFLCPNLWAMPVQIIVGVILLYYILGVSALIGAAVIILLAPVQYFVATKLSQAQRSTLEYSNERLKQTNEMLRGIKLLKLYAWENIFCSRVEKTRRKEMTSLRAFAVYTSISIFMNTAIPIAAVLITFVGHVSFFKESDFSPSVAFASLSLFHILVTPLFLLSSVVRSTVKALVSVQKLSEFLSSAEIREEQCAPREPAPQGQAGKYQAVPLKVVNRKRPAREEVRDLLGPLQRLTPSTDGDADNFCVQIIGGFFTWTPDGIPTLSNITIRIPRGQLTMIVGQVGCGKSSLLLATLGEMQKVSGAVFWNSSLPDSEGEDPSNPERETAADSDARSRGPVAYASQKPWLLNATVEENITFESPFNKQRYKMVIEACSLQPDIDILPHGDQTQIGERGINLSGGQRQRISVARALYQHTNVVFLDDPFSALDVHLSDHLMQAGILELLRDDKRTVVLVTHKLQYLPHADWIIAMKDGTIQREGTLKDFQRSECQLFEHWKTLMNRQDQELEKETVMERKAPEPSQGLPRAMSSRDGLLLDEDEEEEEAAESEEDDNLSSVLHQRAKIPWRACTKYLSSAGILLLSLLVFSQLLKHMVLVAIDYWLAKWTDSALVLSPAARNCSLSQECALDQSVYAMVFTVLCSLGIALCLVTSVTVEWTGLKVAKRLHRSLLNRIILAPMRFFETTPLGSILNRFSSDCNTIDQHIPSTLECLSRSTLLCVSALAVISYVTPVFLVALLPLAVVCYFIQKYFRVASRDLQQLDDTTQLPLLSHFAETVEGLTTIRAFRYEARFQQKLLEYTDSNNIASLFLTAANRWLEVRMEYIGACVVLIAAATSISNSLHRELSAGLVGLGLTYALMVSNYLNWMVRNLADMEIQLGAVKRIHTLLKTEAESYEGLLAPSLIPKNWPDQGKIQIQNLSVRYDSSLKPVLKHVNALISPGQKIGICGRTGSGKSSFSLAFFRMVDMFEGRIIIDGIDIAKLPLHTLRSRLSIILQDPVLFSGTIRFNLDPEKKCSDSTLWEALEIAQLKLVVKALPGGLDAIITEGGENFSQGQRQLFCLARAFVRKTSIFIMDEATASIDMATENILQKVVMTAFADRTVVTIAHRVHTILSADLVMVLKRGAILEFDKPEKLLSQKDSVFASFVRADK
# T1 sequence (P70673 whole entry): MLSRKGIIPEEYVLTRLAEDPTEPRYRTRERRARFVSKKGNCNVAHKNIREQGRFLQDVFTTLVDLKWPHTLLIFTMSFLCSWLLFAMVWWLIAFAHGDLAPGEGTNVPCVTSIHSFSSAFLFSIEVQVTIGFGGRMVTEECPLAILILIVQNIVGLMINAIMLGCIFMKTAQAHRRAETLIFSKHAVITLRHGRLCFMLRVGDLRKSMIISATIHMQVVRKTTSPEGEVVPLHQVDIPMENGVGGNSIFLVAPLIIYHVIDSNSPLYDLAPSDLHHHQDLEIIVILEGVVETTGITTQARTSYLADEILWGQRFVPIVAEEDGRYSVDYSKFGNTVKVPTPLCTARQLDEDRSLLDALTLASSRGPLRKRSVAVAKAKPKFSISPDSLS
# Source text: (§1) We harvested control (L4 and L5) or axotomized (L5) ganglia, from control (SS) or hyperalgesic rats (SNL) respectively, between the 17th and 28th postoperative days. We sacrificed animals by decapitation under deep isoflurane anesthesia, excised ganglia through a lumbar incision, and at the same time confirmed accuracy of initial surgery.
# For patch-clamp recordings, we placed excised DRG into separate 35 mm Petri dishes containing cold, oxygenated, Hanks Balanced Salt Solution (Gibko, Invitrogen, Grand Islan, NY), and minced them with iris scissors. We dissociated ganglia enzymatically in a solution containing 0.25 ml 0.05% w:v liberase blendzyme 2 (Roche Diagnostics Corp., Indianapolis, IN) and 0.25 ml DMEM/F12 with glutaMAX (Dulbecco's modified Eagle's medium F12; Gibco, Invitrogen Corp., Carlsbad, CA) in an incubator at 37°C for 30 min. We then removed the supernatant after centrifugation and re-incubated cells at 37°C for another 30 min in 0.2 ml 0.0625% trypsin (Sigma, St. Louis, MO) and 0.0125% deoxyribonuclease 1 (150,000 U, Sigma, St. Louis, MO) in 0.25 ml DMEM. We then isolated cells by centrifugation (600 rpm for 5 min) after adding 0.25 ml trypsin inhibitor 0.1% w:v (Sigma St. Louis, MO), and re-suspended them in a culture medium consisting of 0.5 mM glutamine, 0.02 mg/ml gentamicin (Gibco, Invitrogen Corp., Carlsbad, CA), 100 ng/ml nerve growth factor 7S (Alomone Labs, Jerusalem, Israel), 2% (vol/vol) B-27 supplement (Gibco, Invitrogen Corp., Carlsbad, CA), and 98% (vol/vol) neural basal medium A (Gibco, Invitrogen Corp., Carlsbad, CA). Finally, we plated cells onto poly-l-lysine-coated 12-mm glass coverslips (Deutsche Spiegelglas; Carolina Biologic Supply, Burlington, NC), kept them in a humidified incubator at 37°C with 95% air and 5% CO2, and studied them within 3–8 h of dissociation.
# We visualized plated neurons using an inverted Nikon Diaphot 300 microscope with Hoffman modulation optic system. We selected only large diameter neuronal somata (≥ 40 μm in diameter) because we have previously shown that only these develop KATP current alterations, as well as changes indicative of increased excitability after painful-like nerve injury by SNL [74]. Large neuronal somata, roughly correspond to large, myelinated Aβ fibers.
# (§2) We recorded current passing through single channels in inside-out or cell-attached patch configurations. In cell-attached patches, both bath and pipette (extracellular) solutions were composed of the following: 140 mM KCl, 10 mM HEPES, 5.5 mM dextrose, and 1 mM EGTA. In inside-out patches, the bath (intracellular) solution contained 140 mM KCl, 1.2 mM MgCl2, 10 mM HEPES, 1.5 mM EGTA and 5.5 mM dextrose. The pipette (extracellular) solution was of the same composition as that used in cell-attached recordings. The pH of all solutions was adjusted to 7.4 with KOH. Osmolality was adjusted approximately to 300 mOsm/l by adding sucrose if necessary. We pulled patch micropipettes from borosilicate glass capillaries using a Flaming/Brown micropipette puller, model P-97 (Sutter, San Rafael, CA) and flame polished them with a microforge polisher (Narishige, Tokyo, Japan) prior to use. Their resistance ranged between 3 and 6 MΩ when filled with the internal solution, and placed into the recording solutions.
# We recorded single channel currents at room temperature (20–25°C) using an Axon CNS Multiclamp 700B amplifier, digitized them using an analog-to-digital converter (Axon CNS DigiData 1440A; Axon Instruments, Foster, CA), and stored them into a PC. Sampling frequency of single-channel data was 5 KHz with a low-pass filter (1 KHz). We used pClamp version 10.2 software (Axon Instruments) for data acquisition and analysis. We applied a conventional 50% current amplitude threshold level criterion to determine open events. Channel open probability (Po) was determined from the ratios of the area under the peaks in the amplitude histograms fitted by a Gaussian distribution. […]
# [2] = target: T1, KATP channels in large DRG neurons; assay: Cell-attached single-channel patch-clamp recording of KATP channel activity (NPo); format: cell-based; conditions: for NPo steady-state value 10 minutes after application of SNAP: SNAP 100 μM, n = 7
# Source text: as §1
# For patch-clamp recordings, we placed excised DRG into separate 35 mm Petri dishes containing cold, oxygenated, Hanks Balanced Salt Solution (Gibko, Invitrogen, Grand Islan, NY), and minced them with iris scissors. We dissociated ganglia enzymatically in a solution containing 0.25 ml 0.05% w:v liberase blendzyme 2 (Roche Diagnostics Corp., Indianapolis, IN) and 0.25 ml DMEM/F12 with glutaMAX (Dulbecco's modified Eagle's medium F12; Gibco, Invitrogen Corp., Carlsbad, CA) in an incubator at 37°C for 30 min. […] Finally, we plated cells onto poly-l-lysine-coated 12-mm glass coverslips (Deutsche Spiegelglas; Carolina Biologic Supply, Burlington, NC), kept them in a humidified incubator at 37°C with 95% air and 5% CO2, and studied them within 3–8 h of dissociation.
# We visualized plated neurons using an inverted Nikon Diaphot 300 microscope with Hoffman modulation optic system. […] Large neuronal somata, roughly correspond to large, myelinated Aβ fibers.
# as §2
# Sampling frequency of single-channel data was 5 KHz with a low-pass filter (1 KHz). […] We applied a conventional 50% current amplitude threshold level criterion to determine open events. Channel open probability (Po) was determined from the ratios of the area under the peaks in the amplitude histograms fitted by a Gaussian distribution. We calculated channel activity as NPo (where N is the number of observed channels in the patch) from data samples of either 30 s (in inside-out recordings), or 60 s (in cell-attached recordings), in the steady state. In inside-out recordings, NPo of the KATP channels was normalized to the baseline NPo value obtained before test drugs at bathing solution without ATP (indicating relative channel activity).
substance,measurement,setting,value
S-nitroso-N-acetylpenicillamine [SNAP],direct effect on KATP channel in inside-out patches,[1]; SNAP 100 μM in the presence of 10 μM [ATP]i,did not produce any significant channel activation
same,direct effect on KATP channel in inside-out patches,[1]; SNAP 100 μM in the presence of 1 mM [ATP]i,gradually activated
same,baseline current amplitude and conductance of channels,"[1]; patch exposure to 100 μM SNAP, n = 5",remained unchanged
same,washout period after which effects were reversible,"[2]; SNAP, data not shown",2 to 5 min
same,NPo steady-state value 10 minutes after application of SNAP,[2]; SNL neurons,0.31 ± 0.09
same,concentration at which KATP channel activation reaches a saturating plateau,[2]; SS and SNL neurons,≥ 100 µM
same,NPo steady-state value 10 minutes after application of SNAP,[2]; SS neurons,0.27 ± 0.07
